# Laboratory results reported in patent US6124431A, “Peptide derivatives” (Teikoku Hormone Mfg. Co., Ltd., priority 1993, dated 2000).
# Test system: mouse leukemia P388 cells
# Assay: Assay of antitumor activity (increase in life span of mice implanted with P388 leukemia)
# Assay type: in vivo
# Conditions: CDF1 mice, P388 cells implanted i.p.; compound i.p. on day 1 and day 5; observed for 60 days; ILS relative to dolastatin 10 = 100
# Description: (1) Assay of antitumor activity
# 0.1 ml (10^6 cells/mouse) portions of mouse leukemia P388 cells were implanted intraperitoneally into 7-week-old CDF1 mice. […] From the results were calculated increases in life span (ILS, %) according to the following equation. In the following equation, T means median survival days of the chemical administration group, and C means median survival days of the control group. [formula]
# Antitumor activity is shown as the relative ratio in the case where the ILS of dolastatin 10 is supposed to be 100.
substance,measurement,value
dolastatin 10,"Antitumor activity (relative ratio of ILS, ILS of dolastatin 10 supposed to be 100)",100
